Experimental data reported in US8129383B2, “Aminopterin dosage forms and methods for inflammatory disorders” (Aminopterin LLC, priority 2005, dated 2012).

Columns and labels:
[1] = system: neutrophils that accumulated in the carrageenan-treated air pouches
Description: J. Clin. Invest., 1993. 92(6):2675-82].
A separate group of 5 animals was given vehicle by ip injection on the same days (0.9% saline, control, n=5). On day 16, air pouches were induced on the animals by injecting 3 ml of air subcutaneously on the back. On day 22 (i.e. one day after the last dose of drug or vehicle), inflammation was induced by injection of 1 ml of a suspension of carrageenan (2% weight/volume in calcium- and magnesium-free PBS). The mice were put back in their cages and allowed to run free for 4 hours. […] After 4 hours, the animals were sacrificed, the pouches flushed with 2 ml of PBS and the exudates harvested. Aliquots were diluted 1:1 with methylene blue (0.01% w/v in PBS), and the cells were counted.

[2] = system: influx of neutrophils (PMNs) in hyperoxia; assay: rat oxygen-toxicity model of bronchopulmonary dysplasia; format: in vivo, rats; settings: single 0.2 mg/kg ip injection day 2 after birth, 95% oxygen, sacrifice day 8
Description: Mason, S, N.; Richard L. Auten, J. Lung inflammation in hyperoxia can be prevented by antichemokine treatment in newborn rats. American Journal of Respiratory Critical Care Medicine 2000, 162, 2316-2323]. […] Litter sizes were the same. […] Dams were rotated daily between air and oxygen cages to avoid maternal oxygen toxicity. On day 8, the pups were weighed and then euthanized, tracheas are cannulated and the pulmonary artery is perfused with saline. Bronchoalveolar lavage fluid (BALF) was then obtained for cell count and chemokine analysis (FIG. 3). The lungs were removed and snap frozen for myeloperoxidase activity assay (neutrophil accumulation within lung parenchyma) and 8-isoprostane, a marker of lipid oxidation. The pulmonary artery was perfused and the lungs were inflation-fixed with buffered formalin at 25 cm H2O.

ma104 cells = assay: adenosine release from ma104 cells; format: cell-based; settings: 8 hours incubation
Description: Various concentrations of aminopterin were incubated with ma104 cells for 8 hours, and the release of adenosine measured (FIG. 5).

[3] = target: T1, dihydrofolate reductase (DHFR) in the liver (Mus musculus, UniProt P00375); assay: free DHFR in liver by 3H-MTX binding after weekly dosing; format: in vivo, mice
T1 construct: from tissue; host or cells: liver (homogenate supernatant) of dosed mice
T1 sequence (P00375 1-187): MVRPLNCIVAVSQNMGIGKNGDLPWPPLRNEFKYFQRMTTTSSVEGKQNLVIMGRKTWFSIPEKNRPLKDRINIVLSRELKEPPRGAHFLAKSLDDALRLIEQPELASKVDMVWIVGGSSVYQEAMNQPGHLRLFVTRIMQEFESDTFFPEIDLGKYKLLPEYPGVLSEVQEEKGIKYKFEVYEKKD
Description: The animals that were treated in Example 1 were further analyzed with respect to the free dihydrofolate reductase (DHFR) available in their livers (i.e., amount of DHFR unbound, or not inhibited by either AMT or MTX) (FIG. 6). The following procedure was used. Portions of frozen liver were weighed and homogenized in three volumes of assay buffer (10 mM KPO4, 150 mM KCl, 1 mg/ml charcoal-treated BSA, 0.1 mg/ml NADPH, pH 7.5) on ice. After centrifugation for 30 min at 16000×G at 4° C., tissue extract was assayed for free DHFR by binding of 3H-MTX. Three serial 1:2 dilutions were made in assay buffer (total 100 μl/tube), starting with 10 μl extract for control samples (+190 μl buffer) or 100 μl for antifolate-treated samples. Approximately 2 pmoles of 3H-MTX (˜100,000 dpms) in 100 μl buffer was added to each tube and mixed by addition of another 100 μl buffer and agitation. After 30 mins on ice, unbound 3H-MTX was removed by addition of 200 μl dextran-coated activated charcoal (2.5% activated charcoal and 0.5% dextran MW 10,000) and centrifugation. Radioactivity in the supernatant (=bound 3H-MTX) was counted after careful removal from the charcoal pellet and addition of Ultima Gold scintillation fluid. A charcoal “blank” consisting of buffer, 3H-MTX and charcoal was subtracted from each value. Results were calculated by averaging the dpms bound/100 μl of the three dilutions, converting to picomoles MTX (specific activity 49,000 dpms/picomole, determined by competitive radioligand assay), and multiplying by 30 to give picomoles/gm tissue.

[4] = system: chronic progressive multiple sclerosis; assay: randomized, placebo-controlled clinical trial in chronic progressive multiple sclerosis; format: in vivo, human
Description: A prophetic randomized, double-blinded, placebo-controlled, clinical trial of low-dose, weekly, oral aminopterin is performed in 60 patients with clinically definite chronic progressive multiple sclerosis (MS) attending a referral-based outpatient MS clinic. Study patients are 21 to 60 years old with a disease duration of longer than 1 year. Patients' Expanded Disability Status Scale scores were 3.0 to 6.5 (ambulatory with moderate disability). Patients are first stratified by Expanded Disability Status Scale scores, 3.0 to 5.5 and 6.0 to 6.5, and then were randomized to receive aminopterin or placebo treatment. Treatment consists of weekly, oral, low-dose (1.0-2.0 mg) aminopterin or placebo for 2 years, followed by observation for as long as 1 year. A composite outcome measurement instrument is used and consists of (1) Expanded Disability Status Scale (EDSS), (2) ambulation index, (3) Box and Block Test, and (4) 9-Hole Peg Test. Failure of therapy is indicated by a designated change that is sustained for more than 2 months in one or more components of this composite measure.

[5] = storage of aqueous compositions; format: physicochemical; settings: six months of storage; water converts aminopterin to folic acid
Description: Because of their ease of administration, tablets and capsules represent the most advantageous oral dosage form in adults, in which case solid pharmaceutical carriers are employed. If desired, tablets may be coated by standard aqueous or nonaqueous techniques. The parenteral dosage form can consist of a sterile solution of the active ingredient, either in its free or salt form, in physiological buffer or sterile water. In addition, parenteral solutions can contain preservatives such as benzalkonium chloride, methyl- or propyl-paraben and chlorobutanol. Suitable pharmaceutical carriers are described in Remington's Pharmaceutical Sciences, a standard reference text in this field. […] Accordingly, such aqueous compositions are best stored desiccated and hydrated within several hours to several days prior to patient administration.

dermal inflammation = settings: cumulative weekly doses of 0.35 mg/kg; cited from earlier work
adjuvant arthritis = settings: cumulative weekly doses of 0.12 mg/kg; cited from earlier work

In the case of `Nc1nc(N)c2nc(CNc3ccc(C(=O)N[C@@H](CCC(=O)O)C(=O)O)cc3)cnc2n1` [aminopterin, 4-amino-pteroyl-L-glutamic acid], the “potency relative to methotrexate” value ([1]; ratio of EC50s, P<0.001) is reported as 43 fold, the “signs of toxicity at the end of the dosing period” value ([1]; weekly ip doses, aminopterin 0.0005-0.050 mg/kg, methotrexate 0.01-1.00 mg/kg) is reported as “no signs of toxicity” and the “EC50 for diminishing the number of neutrophils accumulated in carrageenan-treated air pouches” value ([1]; weekly ip injection days 1, 7, 14, 21, carrageenan day 22, exudate after 4 hours) is reported as 0.0009 mg/kg/wk. The “number of neutrophils in bronchoalveolar lavage fluid” value [2] was “statistically significant reduction”, the EC50 (ma104 cells) was 0.5 nM and the “available DHFR in the liver bound (inhibited)” value ([3]; 1 day after the last of 4 sequential weekly doses) was “about 95%”. The “available DHFR in the liver bound (inhibited)” value ([3]; 8 d after the last of 4 weekly doses) was “about 83%”, the “available DHFR in the liver bound (inhibited)” value ([3]; 22 d after the last of 4 weekly doses) was “about 70%” and the “toxicity in the treatment group” value ([4]; weekly oral 1.0-2.0 mg for 2 years) was “absence of clinically significant toxicity”. The “progression of impairment (EDSS, ambulation index, Box and Block Test, 9-Hole Peg Test or composite)” value ([4]; weekly oral 1.0-2.0 mg for 2 years vs placebo) was “Significantly less progression of impairment”, the “stability of parenteral, oral liquid or other aqueous compositions” value [5] was “accumulate folic acid to undesirable levels” and the efficacy (dermal inflammation) was “demonstrated the efficacy”. For the same compound, the toxicity (dermal inflammation) was “the animals became severely leucopenic and one subject died”, the efficacy (adjuvant arthritis) was “demonstrated the efficacy” and the toxicity (adjuvant arthritis) was “severe toxicity”.
